Tests used:
[1] = target: T1, Dihydroorotate dehydrogenase (fumarate) (Saccharomyces cerevisiae (strain ATCC 204508 / S288c), UniProt P28272); test: Enzymatic Assays
T1 sequence (P28272 whole entry): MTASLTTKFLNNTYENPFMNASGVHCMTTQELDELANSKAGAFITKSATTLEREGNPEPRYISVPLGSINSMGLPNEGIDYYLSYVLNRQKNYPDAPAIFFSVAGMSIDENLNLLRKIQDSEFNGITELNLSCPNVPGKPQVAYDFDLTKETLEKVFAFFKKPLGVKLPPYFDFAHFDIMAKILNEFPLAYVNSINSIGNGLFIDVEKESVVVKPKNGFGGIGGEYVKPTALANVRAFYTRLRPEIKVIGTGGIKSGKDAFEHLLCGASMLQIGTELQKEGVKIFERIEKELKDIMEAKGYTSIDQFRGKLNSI
Text: (§1) Type 2 DHODH activity was monitored with either the direct assay measuring the formation of orotate or via a chromogen reduction assay using DCIP. Although the extinction coefficient and absorption wavelength are preferable for the chromogen reduction assay, the inorganic electron acceptor DCIP can be utilized by DHODH as the final electron acceptor in lieu of CoQn when the endogenous substrate is at a low concentration. As such, the direct assay was used to measure the binding affinity of pfDHODH to CoQD and L-DHO. The enzymatic reaction was performed by varying the L-DHO concentration (1-400 μM) or CoQD concentration (1-200 μM) while keeping the other substrate constant and in excess.

[2] = target: T2, Dihydroorotate dehydrogenase (quinone), mitochondrial [100-517] (Plasmodium berghei (strain Anka), UniProt A0A509AEH5); test: Enzymatic Assays
T2 construct: 100-517
T2 sequence (A0A509AEH5 whole entry): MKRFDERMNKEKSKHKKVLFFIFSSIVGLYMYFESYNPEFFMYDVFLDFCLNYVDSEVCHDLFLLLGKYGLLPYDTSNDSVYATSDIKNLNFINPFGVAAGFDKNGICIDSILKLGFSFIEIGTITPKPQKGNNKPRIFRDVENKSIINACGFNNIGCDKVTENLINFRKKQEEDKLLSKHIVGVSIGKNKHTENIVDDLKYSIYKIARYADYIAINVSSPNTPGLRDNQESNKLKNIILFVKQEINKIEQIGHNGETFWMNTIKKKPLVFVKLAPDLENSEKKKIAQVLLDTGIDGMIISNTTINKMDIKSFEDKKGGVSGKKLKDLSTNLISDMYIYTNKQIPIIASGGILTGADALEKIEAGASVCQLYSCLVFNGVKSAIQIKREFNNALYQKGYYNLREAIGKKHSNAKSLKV
Text: as §1

SMILES	IC50 [1] [µM]	IC50 [2] [µM]
Cc1ccccc1/C=C/c1cc(O)c2ccccc2n1 [US8703811, 2]	> 10	–
Fc1cc(I)ccc1Nc1ccnc2cc(Cl)ccc12 [US8703811, 4]	–	> 10

From BindingDB's records for patent US8703811 (Genzyme, 2014)
